Test results: PMC8588536, “Iridal-Type Triterpenoids Displaying Human Neutrophil Elastase Inhibition and Anti-Inflammatory Effects from Belamcanda chinensis” (Molecules, 2021)

Test system: NF-κB p65 in LPS-stimulated RAW264.7 cells
Test: NF-κB p65 nuclear translocation, Western blot of nuclear and cytoplasmic fractions
Format: cell-based, mouse
Settings: 1 and 3 µg/mL, n = 3, p < 0.05
Procedure: RAW264.7 cells were homogenized in a hypotonic lysis buffer and centrifuged at 142× g for 5 min at 4 °C. The resulting pellets and supernatants were used for the isolation of nuclear and cytosoplasmic fraction, respectively. The pellets were incubated on ice for 5 min with a nuclear isolation buffer and were spun at 142× g using Eppendorf centrifuge 5424 R at 4 °C for 5 min. The resulting pellets were incubated on ice for 30 min with 2% Triton nuclear isolation buffer and were spun at 12,448× g at 4 °C for 15 min. For the cytosolic fraction, the resulting supernatants in the hypotonic lysis buffer were transferred to a new 1.5 mL tube and spun at 15,401× g for 15 min at 4 °C. The resulting supernatants were centrifuged at 100,000× g at 4 °C for 60 min in an ultracentrifuge (TLA 100.3; Optima MAX-XP, Beckman Coulter, Inc., Brea, CA, USA). The proteins of nuclear and cytosolic fractions were separated on 8% SDS-PAGE gel and blotted onto polyvinylidene difluoride membranes. Equal amounts of 35 µg were analyzed by Western blotting. Briefly, the membranes were blocked with 5% fat-free dry milk and then incubated with the anti-NF-κB p65 polyclonal antibody (1:1000 dilution; Cell Signaling Technology), and anti-β-actin monoclonal antibodies (1:5000 dilution). […]

SMILES: CC(C)=CCCC(C)=CCC(O)C(C)=CCCC1(C)C(CCCO)C(=C(C)C=O)CCC1(C)O (stereo not shown) [Compound 2, iridobelamal A]
- nuclear translocation of p65 protein (Western blot): inhibited
